In brackets after ≈: the same amount, converted by molar mass.
System: Vaccinia virus
Assay: Antiviral activity against Vaccinia virus infected in human skin fibroblasts primed with interferon and superinduced with cyclohexamide and actinomycin D assessed as inhibition of virus-induced cytopathogenicity
Format: functional
Details: Orthopoxvirus vaccinia

SMILES	MIC [µM]
O=c1[nH]c(=O)n([C@H]2C[C@H](O)[C@@H](CO)O2)cc1O	40 (≈ 9.77 µg/mL)
C#CCOc1cn([C@H]2C[C@H](O)[C@@H](CO)O2)c(=O)[nH]c1=O	140 (≈ 39.5 µg/mL)
C=CCOc1cn([C@@H]2O[C@H](CO)[C@@H](O)[C@H]2O)c(=O)[nH]c1=O	> 600
C=CCOc1cn([C@H]2C[C@H](O)[C@@H](CO)O2)c(=O)[nH]c1=O	350 (≈ 99.5 µg/mL)
O=c1[nH]c(=O)n([C@@H]2O[C@H](CO)[C@@H](O)[C@H]2O)cc1OCc1ccccc1	> 600
O=c1[nH]c(=O)n([C@H]2C[C@H](O)[C@@H](CO)O2)cc1OCc1ccccc1	> 600
O=c1[nH]c(=O)n([C@@H]2O[C@H](CO)[C@@H](O)[C@H]2O)cc1OCc1ccc([N+](=O)[O-])cc1	> 600
O=c1[nH]c(=O)n([C@H]2C[C@H](O)[C@@H](CO)O2)cc1OCc1ccc([N+](=O)[O-])cc1	> 520
Cc1ccc(COc2cn([C@@H]3O[C@H](CO)[C@@H](O)[C@H]3O)c(=O)[nH]c2=O)cc1	> 600
NC(=O)COc1cn([C@@H]2O[C@H](CO)[C@@H](O)[C@H]2O)c(=O)[nH]c1=O	> 600
NC(=O)COc1cn([C@H]2C[C@H](O)[C@@H](CO)O2)c(=O)[nH]c1=O	130 (≈ 39.2 µg/mL)
O=c1[nH]c(=O)n([C@H]2C[C@H](O)[C@@H](CO)O2)cc1I [IDOXURIDINE]	1.4 (≈ 0.496 µg/mL)
Nc1ncnc2c1ncn2[C@@H]1O[C@H](CO)[C@@H](O)[C@@H]1O [VIDARABINE]	26 (≈ 6.95 µg/mL)
